Results: doi:10.1101/2022.11.22.517505v1 (biorxiv, 2022)

How the values were obtained:
GSK3B [1] = target: T1, GSK3B (Homo sapiens, UniProt P49841); experiment: HotSpot radiometric […]-ATP kinase assay; format: biochemical
PLK2 [2] = target: T2, PLK2 (Homo sapiens, UniProt Q9NYY3); experiment: biochemical; conditions: read-out: % of control remaining
PARP2 = PARP2 (Homo sapiens, UniProt Q9UGN5); experiment: BPS PARP assay kit, biotin-NAD+ luminescence; format: biochemical; conditions: read-out: % inhibition at 10 μM
[3] = target: GSK3A (NanoLuc fusion, HEK293 cells) (Homo sapiens, UniProt P49840); experiment: NanoBRET target engagement, tracer displacement, intact cells; format: cell-based
CSNK1E = CSNK1E (Homo sapiens, UniProt P49674); experiment: biochemical; conditions: read-out: % of control remaining
PARP1 = PARP1 (Homo sapiens, UniProt P09874); experiment: BPS PARP assay kit, biotin-NAD+ luminescence; format: biochemical; conditions: read-out: % inhibition at 10 μM
[4] = target: PLK2 (NanoLuc fusion, HEK293 cells) (Homo sapiens, UniProt Q9NYY3); experiment: NanoBRET target engagement, tracer displacement, intact cells; format: cell-based
GSK3A [5] = target: T3, GSK3A (Homo sapiens, UniProt P49840); experiment: HotSpot radiometric […]-ATP kinase assay; format: biochemical
Target sequence in this assay (P49840 2-483): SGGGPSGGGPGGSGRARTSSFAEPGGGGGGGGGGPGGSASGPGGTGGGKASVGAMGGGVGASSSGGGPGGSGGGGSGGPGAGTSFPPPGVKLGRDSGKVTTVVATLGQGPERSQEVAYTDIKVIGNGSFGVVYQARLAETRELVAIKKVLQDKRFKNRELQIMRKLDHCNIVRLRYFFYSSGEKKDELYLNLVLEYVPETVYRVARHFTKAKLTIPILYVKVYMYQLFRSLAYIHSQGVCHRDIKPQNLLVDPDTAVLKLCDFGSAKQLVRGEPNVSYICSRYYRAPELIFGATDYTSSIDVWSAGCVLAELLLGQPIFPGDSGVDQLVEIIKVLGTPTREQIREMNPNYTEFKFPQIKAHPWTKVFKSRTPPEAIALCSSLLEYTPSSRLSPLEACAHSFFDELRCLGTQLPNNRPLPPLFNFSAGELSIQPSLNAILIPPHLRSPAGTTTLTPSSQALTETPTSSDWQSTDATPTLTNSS

PLK2 [6] = target: T2, PLK2; experiment: HotSpot radiometric […]-ATP kinase assay; format: biochemical
GSK3A [7] = target: T3, GSK3A; experiment: biochemical; conditions: read-out: % of control remaining
Target sequence in this assay (P49840 whole entry): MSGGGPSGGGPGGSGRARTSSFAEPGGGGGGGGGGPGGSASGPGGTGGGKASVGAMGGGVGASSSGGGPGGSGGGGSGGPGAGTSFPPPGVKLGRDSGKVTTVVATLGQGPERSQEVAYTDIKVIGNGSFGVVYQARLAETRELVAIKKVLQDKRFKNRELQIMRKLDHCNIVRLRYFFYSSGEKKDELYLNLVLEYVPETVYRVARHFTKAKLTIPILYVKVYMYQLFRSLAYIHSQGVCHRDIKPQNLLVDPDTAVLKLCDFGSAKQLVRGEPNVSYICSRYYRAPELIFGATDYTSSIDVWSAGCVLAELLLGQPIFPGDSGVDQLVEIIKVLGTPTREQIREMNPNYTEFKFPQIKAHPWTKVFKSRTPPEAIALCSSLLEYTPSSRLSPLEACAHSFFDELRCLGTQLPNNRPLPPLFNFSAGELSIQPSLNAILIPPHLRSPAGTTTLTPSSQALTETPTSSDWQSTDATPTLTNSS

GSK3B [8] = target: T1, GSK3B; experiment: biochemical; conditions: read-out: % of control remaining
GSK3A [9] = target: T3, GSK3A; experiment: HotSpot radiometric […]-ATP kinase assay; format: biochemical; conditions: remaining activity, mean of two replicates
Target sequence in this assay (P49840 2-483): as the sequence (P49840 2-483) above

GSK3B [10] = target: T1, GSK3B; experiment: HotSpot radiometric […]-ATP kinase assay; format: biochemical; conditions: remaining activity, mean of two replicates
PLK2 [11] = target: T2, PLK2; experiment: HotSpot radiometric […]-ATP kinase assay; format: biochemical; conditions: remaining activity, mean of two replicates

T2 sequence (Q9NYY3 whole entry): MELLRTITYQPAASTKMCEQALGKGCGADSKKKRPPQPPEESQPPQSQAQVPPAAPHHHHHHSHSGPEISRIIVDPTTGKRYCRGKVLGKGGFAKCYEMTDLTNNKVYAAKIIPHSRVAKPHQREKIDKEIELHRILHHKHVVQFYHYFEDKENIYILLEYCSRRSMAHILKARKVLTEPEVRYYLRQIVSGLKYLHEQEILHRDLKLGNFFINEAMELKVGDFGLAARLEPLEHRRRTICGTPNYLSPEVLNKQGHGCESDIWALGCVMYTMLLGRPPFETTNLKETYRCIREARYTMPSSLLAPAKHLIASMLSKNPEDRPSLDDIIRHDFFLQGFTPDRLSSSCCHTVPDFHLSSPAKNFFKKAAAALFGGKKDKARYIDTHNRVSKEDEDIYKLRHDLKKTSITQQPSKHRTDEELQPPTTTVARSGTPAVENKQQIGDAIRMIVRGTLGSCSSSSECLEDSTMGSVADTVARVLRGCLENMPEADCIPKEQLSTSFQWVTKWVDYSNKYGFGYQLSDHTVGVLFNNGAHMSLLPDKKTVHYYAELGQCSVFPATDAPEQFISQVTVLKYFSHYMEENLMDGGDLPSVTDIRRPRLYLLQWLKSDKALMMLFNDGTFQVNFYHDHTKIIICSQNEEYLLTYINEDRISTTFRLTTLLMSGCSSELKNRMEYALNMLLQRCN
T1 sequence (P49841 whole entry): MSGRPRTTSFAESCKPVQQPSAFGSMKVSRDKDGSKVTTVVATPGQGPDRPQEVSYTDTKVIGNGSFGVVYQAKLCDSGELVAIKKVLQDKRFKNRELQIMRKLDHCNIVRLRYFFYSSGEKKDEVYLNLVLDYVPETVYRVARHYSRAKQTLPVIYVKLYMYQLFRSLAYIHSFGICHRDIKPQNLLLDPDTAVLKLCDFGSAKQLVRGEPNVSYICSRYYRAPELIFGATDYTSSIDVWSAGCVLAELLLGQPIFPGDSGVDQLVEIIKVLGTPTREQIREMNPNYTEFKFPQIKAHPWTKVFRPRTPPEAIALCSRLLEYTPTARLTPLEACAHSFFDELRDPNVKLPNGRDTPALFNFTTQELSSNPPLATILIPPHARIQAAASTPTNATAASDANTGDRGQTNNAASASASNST
Sequence of CSNK1E (P49674 whole entry): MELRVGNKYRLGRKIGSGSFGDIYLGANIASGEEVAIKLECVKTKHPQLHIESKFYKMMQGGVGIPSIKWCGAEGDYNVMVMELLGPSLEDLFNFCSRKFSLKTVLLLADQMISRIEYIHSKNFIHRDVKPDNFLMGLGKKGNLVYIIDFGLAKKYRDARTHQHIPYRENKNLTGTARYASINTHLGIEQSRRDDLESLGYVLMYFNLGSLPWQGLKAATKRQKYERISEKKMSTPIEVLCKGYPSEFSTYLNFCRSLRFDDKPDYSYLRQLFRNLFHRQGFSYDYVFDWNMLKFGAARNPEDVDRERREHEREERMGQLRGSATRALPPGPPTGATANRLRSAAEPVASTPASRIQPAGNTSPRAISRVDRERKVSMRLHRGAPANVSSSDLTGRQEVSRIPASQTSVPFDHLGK
Sequence of PARP1 (P09874 2-1014): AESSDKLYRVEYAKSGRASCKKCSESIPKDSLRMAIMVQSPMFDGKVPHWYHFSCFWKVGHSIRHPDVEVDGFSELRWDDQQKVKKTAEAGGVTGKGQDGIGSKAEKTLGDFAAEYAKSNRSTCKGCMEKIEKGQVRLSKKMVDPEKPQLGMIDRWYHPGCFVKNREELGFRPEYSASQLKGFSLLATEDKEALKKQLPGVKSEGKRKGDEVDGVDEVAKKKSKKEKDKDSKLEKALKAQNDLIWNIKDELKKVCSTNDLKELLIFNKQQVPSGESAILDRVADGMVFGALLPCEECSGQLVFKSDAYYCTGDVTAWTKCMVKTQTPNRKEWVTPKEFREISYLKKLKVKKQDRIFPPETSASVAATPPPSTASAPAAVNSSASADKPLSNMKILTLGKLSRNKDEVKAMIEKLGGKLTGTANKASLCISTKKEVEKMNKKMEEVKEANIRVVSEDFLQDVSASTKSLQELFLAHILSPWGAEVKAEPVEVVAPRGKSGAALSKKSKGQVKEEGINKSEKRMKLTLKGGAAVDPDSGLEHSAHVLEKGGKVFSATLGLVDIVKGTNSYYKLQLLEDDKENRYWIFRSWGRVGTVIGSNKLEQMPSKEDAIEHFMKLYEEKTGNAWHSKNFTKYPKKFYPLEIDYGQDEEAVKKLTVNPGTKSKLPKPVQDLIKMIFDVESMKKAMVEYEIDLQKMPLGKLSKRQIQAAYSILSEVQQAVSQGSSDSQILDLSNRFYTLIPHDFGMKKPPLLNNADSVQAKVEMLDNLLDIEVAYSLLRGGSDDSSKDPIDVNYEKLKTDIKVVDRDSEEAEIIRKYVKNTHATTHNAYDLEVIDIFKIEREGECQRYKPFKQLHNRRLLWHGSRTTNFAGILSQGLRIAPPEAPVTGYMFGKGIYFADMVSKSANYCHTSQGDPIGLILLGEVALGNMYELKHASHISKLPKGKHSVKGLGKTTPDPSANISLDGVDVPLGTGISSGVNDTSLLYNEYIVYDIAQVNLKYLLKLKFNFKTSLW
Sequence of PLK2 (NanoLuc fusion, HEK293 cells) (Q9NYY3 whole entry, the tested form may be a part): as the sequence (Q9NYY3 whole entry) above
Sequence of GSK3A (NanoLuc fusion, HEK293 cells) (P49840 2-483): as the sequence (P49840 2-483) above
Sequence of PARP2 (Q9UGN5 whole entry, the tested form may be a part): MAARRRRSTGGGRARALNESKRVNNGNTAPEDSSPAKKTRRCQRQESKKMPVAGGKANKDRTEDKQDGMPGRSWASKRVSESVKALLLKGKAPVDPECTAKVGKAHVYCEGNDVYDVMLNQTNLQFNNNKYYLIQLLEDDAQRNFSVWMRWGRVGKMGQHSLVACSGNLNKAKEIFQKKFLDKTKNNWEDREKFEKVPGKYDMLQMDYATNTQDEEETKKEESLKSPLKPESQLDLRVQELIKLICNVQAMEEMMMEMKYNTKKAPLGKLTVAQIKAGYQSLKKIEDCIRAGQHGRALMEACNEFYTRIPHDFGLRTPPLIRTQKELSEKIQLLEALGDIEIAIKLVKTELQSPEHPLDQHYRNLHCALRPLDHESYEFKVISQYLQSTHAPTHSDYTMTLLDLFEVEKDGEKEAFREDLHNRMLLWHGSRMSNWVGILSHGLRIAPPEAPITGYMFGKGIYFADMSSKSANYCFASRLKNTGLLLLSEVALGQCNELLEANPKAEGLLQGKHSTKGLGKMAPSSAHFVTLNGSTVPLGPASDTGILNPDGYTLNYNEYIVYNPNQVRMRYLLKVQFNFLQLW

| IC50 (GSK3B [1]) [nM] | remaining activity at 1 µM (PLK2 [2]) [%] | inhibition at 10 µM (PARP2) [%] | EC50 [3] [nM] | remaining activity at 1 µM (CSNK1E) [%] | inhibition at 10 µM (PARP1) [%] | EC50 [4] [nM] | IC50 (GSK3A [5]) [nM] | IC50 (PLK2 [6]) [nM] | remaining activity at 1 µM (GSK3A [7]) [%] | remaining activity at 1 µM (GSK3B [8]) [%] | Enzyme activity (%) at 1 μM (GSK3A [9]) [%] | Enzyme activity (%) at 1 μM (GSK3B [10]) [%] | Enzyme activity (%) at 1 μM (PLK2 [11]) [%] | Compound |
| --- | --- | --- | --- | --- | --- | --- | --- | --- | --- | --- | --- | --- | --- | --- |
| 2000 | 40.7 | 100 | 15000 | 102 | 100 | 5080 | 579 | 591 | 34.4 | 63.1 |  |  |  | O=C(O)c1ccc(-c2[nH]c3cc(F)cc4c3c2CCNC4=O)cc1 [M324] |
|  |  |  |  | 103 |  |  |  |  |  |  | 74.15 | 35.38 | 88.95 | CNCc1ccc(-c2[nH]c3cc(F)cc4c3c2CCNC4=O)cc1 [rucaparib] |
